The values below come from US20020069423A1 (priority 2000, published 2002).

A value given as a limit tells only on which side of the number the result lay.

Test [1] concerns the target PrP^ac (Mus musculus, UniProt P04925). Particulars: cell culture; not tested in animal models; cited from earlier work.
In test [2] the test system is untransfected bovine fetal fibroblasts (BFF cells). The class given is cell-based.
The target of test [3] is PrP^ac (Mesocricetus auratus, UniProt P04273). Particulars: scrapie-infected hamsters, controlled study; cited from earlier work.
Sequence of PrP^ac (Mesocricetus auratus, UniProt P04273) (P04273 23-231 limits assumed): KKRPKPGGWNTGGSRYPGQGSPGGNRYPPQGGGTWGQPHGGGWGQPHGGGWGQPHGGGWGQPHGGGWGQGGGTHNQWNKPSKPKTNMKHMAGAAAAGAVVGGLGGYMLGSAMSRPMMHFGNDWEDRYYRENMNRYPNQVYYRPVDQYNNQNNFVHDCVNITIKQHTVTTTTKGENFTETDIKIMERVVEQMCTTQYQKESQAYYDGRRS

Sequence of PrP^ac (Mus musculus, UniProt P04925) (P04925 23-230 limits assumed): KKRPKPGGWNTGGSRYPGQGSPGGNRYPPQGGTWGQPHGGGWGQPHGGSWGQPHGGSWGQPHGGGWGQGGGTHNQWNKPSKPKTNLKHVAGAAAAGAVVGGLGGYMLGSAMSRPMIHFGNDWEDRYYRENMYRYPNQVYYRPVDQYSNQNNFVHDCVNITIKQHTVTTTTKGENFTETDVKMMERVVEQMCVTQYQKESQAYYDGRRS

On to pentosan polysulfate, for which, on PrP^ac [1], the “effect on accumulation of PrP^ac” value is “prevent accumulation of PrP^ac”.
Regarding `CN[C@@H]1[C@@H](O)[C@@H](O[C@@H]2[C@@H](O)[C@H](O[C@H]3O[C@H]([C@@H](C)O)[C@@H](O)[C@H](O)[C@H]3N)[C@@H](N)C[C@H]2N)OC[C@]1(C)O` [G418, geneticin (G418)], in test [2], the “concentration sufficient to kill non-neomycin containing BFF cells but allow rapid growth of BFF cells with transfected neomycin gene” value was determined as 400 µg/mL, the “concentration that will sufficiently kill non-neomycin containing BEF cells but allow proliferation of cells with transfected neomycin gene” value came to 400 µg/mL, the “lag time in drug selection” value is given as “approximately 3 days” and the “time of drug selection until BFF cells were dead” value was at most 3 days.
For `C[C@@H]1[C@H](O)[C@@H](C)/C=C/C=C/C=C/C=C/C=C/C=C/C=C/[C@H](O[C@@H]2O[C@H](C)[C@@H](O)[C@H](N)[C@@H]2O)C[C@@H]2O[C@](O)(C[C@@H](O)C[C@@H](O)[C@H](O)CC[C@@H](O)C[C@@H](O)CC(=O)O[C@H]1C)C[C@H](O)[C@H]2C(=O)O` [amphotericin B], at PrP^ac [3], the “effect on accumulation of PrP^ac” value is given as “delayed the accumulation of PrP^ac”.
Consider `Nc1c(/N=N/c2ccc(-c3ccc(/N=N/c4cc(S(=O)(=O)O)c5ccccc5c4N)cc3)cc2)cc(S(=O)(=O)O)c2ccccc12` [Congo red], for which, on PrP^ac [1], the “effect on accumulation of PrP^ac” value is “prevent accumulation of PrP^ac”.
